Like-named read-outs stand apart in the source and are kept apart here.
How the values were obtained:
[1] = target: adenosine A2B receptor (Homo sapiens (Human), UniProt P29275); assay: Adenosine receptor activity assay (Table 1), A2B activity; assay type: biochemical; details: for IC50: read-out: Ave A2B cAMP IC50
[2] = target: adenosine A2A receptor (Homo sapiens (Human), UniProt P29274); assay: Adenosine receptor activity assay (Table 1), A2A activity; assay type: biochemical; details: read-out: Ave A2A cAMP IC50
[3] = target: T1, adenosine A1 receptor (Homo sapiens (Human), UniProt P30542); assay: A1 cAMP IC50 assay (Table 1); assay type: biochemical
[4] = target: T2, adenosine A3 receptor (Homo sapiens (Human), UniProt P0DMS8); assay: A3 cAMP IC50 assay (Table 1); assay type: biochemical
[5] = Hepatocyte (Hep) intrinsic clearance, rat; assay type: in vitro ADME; details: hepatocytes
[6] = Hepatocyte (Hep) intrinsic clearance, human; assay type: in vitro ADME; details: hepatocytes
[7] = target: T1, adenosine A1 receptor; assay: Adenosine receptor activity assay (Table 1), A1 cAMP; assay type: biochemical
[8] = target: T2, adenosine A3 receptor; assay: Adenosine receptor activity assay (Table 1), A3 cAMP; assay type: biochemical
[9] = A2A activity to A2B activity (A2A/A2B)

T2 sequence (P0DMS8 whole entry): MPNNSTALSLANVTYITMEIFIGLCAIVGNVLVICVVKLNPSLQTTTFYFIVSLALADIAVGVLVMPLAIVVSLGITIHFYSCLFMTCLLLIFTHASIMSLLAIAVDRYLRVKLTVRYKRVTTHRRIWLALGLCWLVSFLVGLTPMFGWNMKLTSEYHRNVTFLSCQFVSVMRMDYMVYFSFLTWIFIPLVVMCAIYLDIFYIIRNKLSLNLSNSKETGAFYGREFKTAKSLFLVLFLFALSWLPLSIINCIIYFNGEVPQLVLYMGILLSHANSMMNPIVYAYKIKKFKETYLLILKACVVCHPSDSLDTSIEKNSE
Chain of adenosine A2B receptor (P29275 whole entry): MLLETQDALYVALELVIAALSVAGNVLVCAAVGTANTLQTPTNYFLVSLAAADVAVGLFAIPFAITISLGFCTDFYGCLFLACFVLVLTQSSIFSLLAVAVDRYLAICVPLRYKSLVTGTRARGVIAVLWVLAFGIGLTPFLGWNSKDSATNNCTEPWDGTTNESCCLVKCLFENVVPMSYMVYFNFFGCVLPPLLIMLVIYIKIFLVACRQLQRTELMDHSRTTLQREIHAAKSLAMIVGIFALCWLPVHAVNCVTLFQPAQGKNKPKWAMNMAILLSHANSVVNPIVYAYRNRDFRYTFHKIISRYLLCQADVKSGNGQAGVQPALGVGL
Chain of adenosine A2A receptor (P29274 whole entry): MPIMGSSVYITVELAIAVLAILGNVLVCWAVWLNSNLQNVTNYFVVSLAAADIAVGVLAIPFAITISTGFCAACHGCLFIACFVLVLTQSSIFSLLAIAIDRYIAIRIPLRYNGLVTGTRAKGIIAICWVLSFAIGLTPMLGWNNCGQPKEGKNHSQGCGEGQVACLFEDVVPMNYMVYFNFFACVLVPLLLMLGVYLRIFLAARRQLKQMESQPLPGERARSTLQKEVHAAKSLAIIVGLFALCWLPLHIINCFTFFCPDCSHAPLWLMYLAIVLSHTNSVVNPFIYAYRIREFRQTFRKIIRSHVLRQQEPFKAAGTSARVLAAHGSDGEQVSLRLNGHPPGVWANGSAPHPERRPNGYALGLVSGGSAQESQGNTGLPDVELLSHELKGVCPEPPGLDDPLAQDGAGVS
T1 sequence (P30542 whole entry): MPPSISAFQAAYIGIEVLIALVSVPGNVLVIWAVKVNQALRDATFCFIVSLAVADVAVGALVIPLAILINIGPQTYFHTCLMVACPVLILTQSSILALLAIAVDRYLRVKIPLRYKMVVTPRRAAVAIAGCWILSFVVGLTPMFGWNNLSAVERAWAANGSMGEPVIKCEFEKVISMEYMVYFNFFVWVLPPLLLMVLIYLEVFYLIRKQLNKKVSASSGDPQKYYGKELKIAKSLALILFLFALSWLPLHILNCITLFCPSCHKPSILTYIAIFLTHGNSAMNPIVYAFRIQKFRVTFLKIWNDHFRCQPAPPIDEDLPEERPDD

Structure (SMILES)	Ratio [1, 9]	IC50 [1] [nM]	IC50 [2] [nM]	IC50 [3] [nM]	IC50 [4] [nM]	hepatocyte CLint [5] [µL/min/1e6 cells]	hepatocyte CLint [6] [µL/min/1e6 cells]	Ratio ([1]; A2A activity to the A2B activity, A2A/A2B)	IC50 ([1]; cAMP) [nM]	IC50 ([2]; cAMP) [nM]	IC50 [7] [nM]	IC50 [8] [nM]
C[C@H](Nc1nc(C(=O)N2CC[C@H](O)C2)c2sccc2n1)c1cccc(F)c1 [Example Z129, (2-(((S)-1-(3-Fluorophenyl)ethyl)amino)thieno[3,2-d]pyrimidin-4-yl)((S)-3-hydroxypyrrolidin-1-yl)methanone]	22.27	10 to 50	100 to 500	> 500	50 to 100	43	9.59	–	–	–	–	–
C[C@H](Nc1nc(C(=O)N2CC(O)C2)c2sccc2n1)c1cccnc1 [Example Z138, (S)-(3-Hydroxyazetidin-1-yl)(2-((1-(pyridin-3-yl)ethyl)amino)thieno[3,2-d]pyrimidin-4-yl)methanone]	14.05	10 to 50	100 to 500	> 500	> 500	10.3	1.14	–	–	–	–	–
COC1CN(C(=O)c2nc(N[C@@H](C)c3cccnc3)nc3ccsc23)C1 [Example Z139, (S)-(3-Methoxyazetidin-1-yl)(2-((1-(pyridin-3-yl)ethyl)amino)thieno[3,2-d]pyrimidin-4-yl)methanone]	8.08	< 10	50 to 100	> 500	> 500	24.2	7.67	–	–	–	–	–
N#Cc1cncc(CNc2nc(C(=O)N3CCCC3)c3sccc3n2)c1 [Example Z141, 5-(((4-(Pyrrolidine-1-carbonyl)thieno[3,2-d]pyrimidin-2-yl)amino)methyl)nicotinonitrile]	35.53	10 to 50	> 500	> 500	> 500	102	38.7	–	–	–	–	–
C[C@H](Nc1nc(C(=O)NCCO)c2sccc2n1)c1cccnc1 [Example Z145, (S)—N-(2-Hydroxyethyl)-2-((1-(pyridin-3-yl)ethyl)amino)thieno[3,2-d]pyrimidine-4-carboxamide]	–	10 to 50	100 to 500	–	–	8.46	1.92	–	–	–	–	–
C[C@H](Nc1nc(C(=O)NC2CC(O)C2)c2sccc2n1)c1ccccn1 (stereo partly drawn) [Example Z158, N-((1s,3R)-3-Hydroxycyclobutyl)-2-(((S)-1-(pyridin-2-yl)ethyl)amino)thieno[3,2-d]pyrimidine-4-carboxamide]	9.39	–	–	–	–	22.6	20.6	–	–	–	–	–
C[C@H](Nc1nc(C(=O)N2CC[C@H](O)C2)c2sccc2n1)c1cncc(F)c1 [Example Z165, (2-(((S)-1-(5-Fluoropyridin-3-yl)ethyl)amino)thieno[3,2-d]pyrimidin-4-yl)((S)-3-hydroxypyrrolidin-1-yl)methanone]	73.68	< 10	> 500	> 500	> 500	14.8	5.66	–	–	–	–	–
O=C(NC1CCC1)c1nc(NCc2cncc(F)c2)nc2ccsc12 [Example Z171, N-Cyclobutyl-2-(((5-fluoropyridin-3-yl)methyl)amino)thieno[3,2-d]pyrimidine-4-carboxamide]	22.94	< 10	50 to 100	100 to 500	> 500	91.4	51.4	–	–	–	–	–
COC1CN(C(=O)c2nc(N[C@@H](C)c3cncc(F)c3)nc3ccsc23)C1 [Example Z185, (S)-(2-((1-(5-Fluoropyridin-3-yl)ethyl)amino)thieno[3,2-d]pyrimidin-4-yl)(3-methoxyazetidin-1-yl)methanone]	46.14	< 10	100 to 500	> 500	> 500	37	12	–	–	–	–	–
CNc1cc2nc(N[C@@H](C)c3cccnc3)nc(C(=O)N3CC[C@H](O)C3)c2s1 [Example Z188, ((S)-3-Hydroxypyrrolidin-1-yl)(6-(methylamino)-2-(((S)-1-(pyridin-3-yl)ethyl)amino)thieno[3,2-d]pyrimidin-4-yl)methanone]	114.79	10 to 50	> 500	> 500	> 500	10	2.16	–	–	–	–	–
C[C@H](Nc1nc(C(=O)NC[C@@H](C)O)c2sccc2n1)c1cncc(F)c1 [Example Z190, 2-(((S)-1-(5-Fluoropyridin-3-yl)ethyl)amino)-N—((R)-2-hydroxypropyl)thieno[3,2-d]pyrimidine-4-carboxamide]	34.96	< 10	50 to 100	> 500	> 500	23.7	10.1	–	–	–	–	–
C[C@H](O)CNC(=O)c1nc(N[C@@H](C)c2cncc(F)c2)nc2ccsc12 [Example Z191, 2-(((S)-1-(5-Fluoropyridin-3-yl)ethyl)amino)-N—((S)-2-hydroxypropyl)thieno[3,2-d]pyrimidine-4-carboxamide]	45.25	< 10	100 to 500	> 500	> 500	26.7	10.6	–	–	–	–	–
C[C@H](Nc1nc(C(=O)NC2CC2)c2sccc2n1)c1ccccn1 [Example Z192, (S)—N-Cyclopropyl-2-((1-(pyridin-2-yl)ethyl)amino)thieno[3,2-d]pyrimidine-4-carboxamide]	6.93	< 10	10 to 50	50 to 100	> 500	–	–	–	–	–	–	–
CNc1cc2nc(N[C@@H](C)c3cncc(F)c3)nc(C(=O)N3CC[C@H](O)C3)c2s1 [Example Z197, (2-(((S)-1-(5-Fluoropyridin-3-yl)ethyl)amino)-6-(methylamino)thieno[3,2-d]pyrimidin-4-yl)((S)-3-hydroxypyrrolidin-1-yl)methanone]	298.42	< 10	> 500	> 500	> 500	16.2	3.34	–	–	–	–	–

Results, then the compound that gave them:

Ratio [1, 9]	IC50 [1] [nM]	IC50 [2] [nM]	IC50 [3] [nM]	IC50 [4] [nM]	hepatocyte CLint [5] [µL/min/1e6 cells]	hepatocyte CLint [6] [µL/min/1e6 cells]	Ratio ([1]; A2A activity to the A2B activity, A2A/A2B)	IC50 ([1]; cAMP) [nM]	IC50 ([2]; cAMP) [nM]	IC50 [7] [nM]	IC50 [8] [nM]	Structure (SMILES)
19.91	10 to 50	100 to 500	> 500	10 to 50	66.8	74.8	–	–	–	–	–	COc1cc(F)cc(CNc2nc(C(=O)N3CC(O)C3)c3sccc3n2)c1 [Example Z137, (2-((3-Fluoro-5-methoxybenzyl)amino)thieno[3,2-d]pyrimidin-4-yl)(3-hydroxyazetidin-1-yl)methanone]
2.82	< 10	10 to 50	> 500	100 to 500	68.3	43.5	–	–	–	–	–	C[C@H](Nc1nc(C(=O)NC2CCC2)c2sccc2n1)c1ccccn1 [Example Z147, (S)—N-Cyclobutyl-2-((1-(pyridin-2-yl)ethyl)amino)thieno[3,2-d]pyrimidine-4-carboxamide]
53.70	< 10	100 to 500	> 500	50 to 100	38.3	12.3	–	–	–	–	–	CNc1cc2nc(N[C@@H](C)c3cccnc3)nc(C(=O)N3CCCC3)c2s1 [Example Z152, (S)-(6-(Methylamino)-2-((1-(pyridin-3-yl)ethyl)amino)thieno[3,2-d]pyrimidin-4-yl)(pyrrolidin-1-yl)methanone]
49.96	< 10	50 to 100	> 500	> 500	34	13.5	–	–	–	–	–	C[C@H](Nc1nc(C(=O)N2CCC2)c2sccc2n1)c1cncc(F)c1 [Example Z164, (S)-Azetidin-1-yl(2-((1-(5-fluoropyridin-3-yl)ethyl)amino)thieno[3,2-d]pyrimidin-4-yl)methanone]
62.32	10 to 50	> 500	> 500	> 500	16.6	4.51	–	–	–	–	–	C[C@H](Nc1nc(C(=O)N2CC[C@@H](O)C2)c2sccc2n1)c1cncc(F)c1 [Example Z166, (2-(((S)-1-(5-Fluoropyridin-3-yl)ethyl)amino)thieno[3,2-d]pyrimidin-4-yl)((R)-3-hydroxypyrrolidin-1-yl)methanone]
26.40	< 10	100 to 500	> 500	> 500	43.7	55.6	–	–	–	–	–	O=C(NCCO)c1nc(NCc2cc(F)cc(F)c2)nc2ccsc12 [Example Z169, 2-((3,5-Difluorobenzyl)amino)-N-(2-hydroxyethyl)thieno[3,2-d]pyrimidine-4-carboxamide]
37.09	< 10	100 to 500	> 500	> 500	23.7	24.9	–	–	–	–	–	O=C(NC1CC(O)C1)c1nc(NCc2cncc(F)c2)nc2ccsc12 (centres unmarked) [Example Z183, 2-(((5-Fluoropyridin-3-yl)methyl)amino)-N-((1s,3s)-3-hydroxycyclobutyl)thieno[3,2-d]pyrimidine-4-carboxamide]
–	–	–	–	–	–	–	1.22	10 to 50	10 to 50	> 500	100 to 500	Cc1cc2nc(N[C@@H](C)c3cncc(F)c3)nc(C(=O)N3CC(NC(=O)[C@H]4CCOC4)C3)c2s1 [Example Z599, (S)—N-(1-(2-(((S)-1-(5-Fluoropyridin-3-yl)ethyl)amino)-6-methylthieno[3,2-d]pyrimidine-4-carbonyl)azetidin-3-yl)tetrahydrofuran-3-carboxamide]

— US11254686B1 (Corvus Pharmaceuticals, Inc., priority 2017, dated 2022)
